Results on one substance are retold here after patent US9051345B2, “Metalloinsertor complexes targeted to DNA mismatches” (CALIFORNIA INSTITUTE OF TECHNOLOGY, priority 2011, dated 2015).

Format in all cases: cell-based, human
The test system of data set [1] is HCT116N cells. Kind of data set: MTT cytotoxicity assay. Conditions: 72 hours. On the procedure: (§1) Cytotoxicity assays were performed as described in Mosmann, 1983, J. Immunol. Methods, 65, 55-63, the entire contents of which is incorporated herein by reference. HCT116N and HCT116O cells were plated in 96-well plates at 50,000 cells/well and incubated with rhodium for the durations specified. After incubation with the indicated rhodium complexes, cells were labeled with MTT for 4 hours at 37° C. under 5% CO2 and humidified atmosphere. The resulting formazan crystals were dissolved with solubilizing reagent purchased from Roche according to the manufacturer's instructions. The dissolved formazan was quantified as the absorbance at 570 nm minus the background absorbance at 690 nm. Percent viability was determined as the ratio of the amount of formazan in the treated cells to that of the untreated cells.
In order to elucidate the mechanism of action for the cytotoxicity caused by a metalloinsertor complex of Formula I, the MTT cytotoxicity assay was repeated in the absence and presence of the pan-caspase inhibitor Z-VAD-FMK. This inhibitor works by irreversibly binding to the active site of caspases which participate in the apoptotic pathway. Z-VAD-FMK was added to a final concentration of 20 μM. The HCT116N and HCT116O cell lines were treated with 0-30 μM of the [Rh(HDPA)2chrysi]^3+ complex for 24-72 hours. In addition, each treatment was also combined with the inhibitor at a final concentration of 20 μM.
In order to determine the mechanism of action for cytotoxicity caused by a metalloinsertor complex of Formula I, the MTT cytotoxicity assay was repeated in conjunction with a panel of poly-ADP ribose polymerase (PARP) inhibitors: DPQ, 3-AB, 4-AN, and ABT-888, as described in Costantino et al., 2001, J. Med. Chem., 44, 3786-3794; Purnell et al., 1980, Biochem. J. 185, 775-777; Banasik et al., 1992, J. Biol. Chem. 267, 1569-1575; and Donawho et al., 2007, Clin. Cancer Res., 13, 2728-2737, the entire contents of all of which are incorporated herein by reference. […]

The subject of data set [2] is HCT116N and HCT116O cells. The data set can be described thus: ICP-MS assay for cellular rhodium levels, whole cell lysates. The following applies: 10 μM; 48 hours; compared to [Rh(bpy)2chrysi]^3+ or [Rh(NH3)4chrysi]^3+. Here is the method: To assay the subcellular localization of the rhodium complexes, an inductively coupled plasma mass spectrometry (ICP-MS) assay was used to quantify the uptake of the complexes in both whole cell extracts and nuclear and mitochondrial fractions.
Each cell line was treated with 10 μM of each rhodium complex as indicated in FIG. 33A (except [Rh(DIP)2(chrysi]^3+ which was administered at 2 μM) for 1, 3, 6, 12, 24, or 48 hours. After rhodium incubation, the cells were harvested from adherent culture by trypsinization, washed with cold PBS, and counted by hemacytometer. The samples were pelleted and resuspended in 1% HNO3 (v/v), homogenized by three freeze/thaw cycles in liquid nitrogen, and analyzed for rhodium content on an HP-4500 ICP-MS unit. Rhodium counts were normalized to the number of cells counted in each sample before lysate preparation. Standard errors for three independent experiments are shown.

In a further data set the test system is HCT116O cells. The data set can be described thus: MTT cytotoxicity assay. On the procedure: as §1
In order to elucidate the mechanism of action for the cytotoxicity caused by a metalloinsertor complex of Formula I, the MTT cytotoxicity assay was repeated in the absence and presence of the pan-caspase inhibitor Z-VAD-FMK. This inhibitor works by irreversibly binding to the active site of caspases which participate in the apoptotic pathway. […] The HCT116N and HCT116O cell lines were treated with 0-30 μM of the [Rh(HDPA)2chrysi]^3+ complex for 24-72 hours. […]
In order to determine the mechanism of action for cytotoxicity caused by a metalloinsertor complex of Formula I, the MTT cytotoxicity assay was repeated in conjunction with a panel of poly-ADP ribose polymerase (PARP) inhibitors: DPQ, 3-AB, 4-AN, and ABT-888, as described in Costantino et al., 2001, J. Med. Chem., 44, 3786-3794; Purnell et al., 1980, Biochem. J. 185, 775-777; Banasik et al., 1992, J. Biol. Chem. 267, 1569-1575; and Donawho et al., 2007, Clin. Cancer Res., 13, 2728-2737, the entire contents of all of which are incorporated herein by reference. The HCT116N and HCT116O cell lines were treated with 0 or 20 μM of the [Rh(HDPA)2chrysi]^3+ complex for 72 hours, with or without one of the four inhibitors. The inhibitor 3,4-Dihydro-5[4-(1-piperindinyl)butoxy]-1(2H)-isoquinoline (DPQ) was added to a final concentration of 0, 25, or 50 μM; the inhibitor 3-aminobenzamide (3-AB) was added to a final concentration of 0, 2, or 3 mM; the inhibitor 4-amino-1,8-napthalimide (4-AN) was added to a final concentration of 0, 10, or 20 μM; and the inhibitor 2-((R)-2-Methylpyrrolidin-2-yl)-1H-benzimidazole-4-carboxamide (ABT-888) was added to a final concentration of 0, 5, or 10 μM. […] For example, in the case of the compound DPQ, this difference was 43±2.7% without inhibitor and 0.6±3.0% with inhibitor.

Data set [3] relates to HCT116N cells. The data set can be described thus: Cell death mode flow cytometry assay (YO-PRO-1 / PI dye exclusion). The following applies: 20 μM, 72 hours, untreated 62±0.6%. The source says: To characterize the cell death occurring in response to rhodium treatment, a dye exclusion flow cytometry assay was used as described in Idziorek et al., 1995 J. Immunol. Methods, 185, 249-258, the entire contents of which is incorporated herein by reference. The assay differentiates between live cells, dead cells, and cells undergoing apoptosis or necrosis through concurrent staining with propidium iodide (a dead cell permeable dye) and YO-PRO-1 (an apoptotic cell permeable dye). By plotting the fluorescence of the YO-PRO-1 channel against the PI channel, a pattern emerges. Healthy cells are seen in the lower lefthand corner of the plot in FIGS. 36A-36D. […] Dead cells admit both dyes and are therefore seen in the upper righthand quadrant of the image. Upon flow cytometry analysis, cells can be classified as live, apoptotic, necrotic, or dead by defining regions in the fluorescence plane corresponding to each category.
The HCT116N and HCT116O cell lines were incubated with 0-25 μM of [Rh(HDPA)2chrysi]^3+ for 24-72 hours. After harvesting the cells and staining with both PI and YO-PRO-1, the cells were analyzed by flow cytometry to obtain raw fluorescence data. Representative data for 20 μM rhodium treatment for 72 hours are shown. YO-PRO-1 fluorescence is shown on the y-axis, and PI fluorescence is shown on the x-axis. The raw data were analyzed by gating the fluorescence events into one of four categories, depending on the fluorescence levels of the two dyes. FIGS. 37A-37B also show histograms of live, apoptotic, necrotic, and dead cells for the HCT116N and HCT116O cell lines based on the flow cytometry. Treatment with the indicated rhodium complex was either 15 or 20 µM [Rh(HDPA)2chrysi]^3+ for 72 hours.
After 24, 48, or 72 hour incubation with the selected rhodium complex, cells were harvested from adherent culture by trypsinization and washed with cold PBS, and centrifuged at 2,000 rpm for 5 minutes. The resultant pellets were resuspended in PBS to a concentration of 10^6 cells/mL and stained with propidium iodide to a final concentration of 1 μg/mL and with YO-PRO-1 (an apoptotic cell permeable dye) to a final concentration of 200 nM for 30 minutes prior to analysis by flow cytometry.

Regarding [Rh(HDPA)2chrysi]^3+, in the data set with HCT116N cells [1] (20 μM), the “number of viable HCT116N cells, % of untreated controls” value turned out to be 80±5.2%. The “cell viability HCT116N with caspase inhibitor” value in the data set with HCT116N cells [1] (30 μM metal complex, with Z-VAD-FMK at 20 M (so in the source)) came out at 52±9.8%. Also, the “cell viability HCT116N” value in the data set with HCT116N cells [1] (30 μM metal complex, without inhibitor) worked out at 63±5.7%. Also, the “cellular uptake (rhodium accumulation in whole cell lysates)” value in data set [2] is recorded as “increase in cellular uptake”. The “caspase dependence of the selective cell death” value in the data set with HCT116O cells (MTT with or without Z-VAD-FMK) is “caspase-independent”. For the same substance, the “number of viable HCT116O cells, % of untreated controls” value in the data set with HCT116O cells (MTT, 20 μM, 72 hours) stood at 37±4.4%. For the same substance, in the data set with HCT116O cells (MTT, 20 μM, 72 hours, with PARP inhibitor DPQ), the “difference between percentage of viable HCT116N cells and percentage of viable HCT116O cells, with DPQ” value amounted to 0.6±3.0%. For the same substance, in the data set on HCT116O cells (MTT, 20 μM, 72 hours, without inhibitor), the “difference between percentage of viable HCT116N cells and percentage of viable HCT116O cells” value worked out at 43±2.7%. The “cell viability HCT116O with caspase inhibitor” value in the data set on HCT116O cells (MTT, 30 μM metal complex, 72 hours, with Z-VAD-FMK at 20 M (so in the source)) was found to be 9.8±7.8%. Besides, in the data set on HCT116O cells (MTT, 30 μM metal complex, 72 hours, without inhibitor), the “cell viability HCT116O” value is 9.7±4.4%. Also, the “toxicity in MMR-deficient HCT116O versus HCT116N cells at 48 hours” value in the data set on HCT116O cells (MTT, 48 hours) was “enhance toxicity in the MMR-deficient HCT116O cells”. The “cell viability HCT116O without inhibitor (40 μM caspase inhibitor experiment)” value in the data set on HCT116O cells (MTT, rhodium alone, control arm of the 40 μM Z-VAD-FMK experiment) amounted to 16±10%. The “cell viability HCT116O with caspase inhibitor 40 μM” value with HCT116O cells (MTT, rhodium plus Z-VAD-FMK 40 μM) came to 28±3.7%. The “live cells HCT116N after treatment” value in the data set on HCT116N cells [3] was 54±5.1%.
